Laboratory results taken from patent US6410552B1, “Benzoether and related compositions and methods” (Ortho-McNeil Pharmaceutical, Inc., priority 2000, dated 2002).

target: T1, calcium channel (Oryctolagus cuniculus, UniProt P15381); assay: Assay for Inhibition of Nitrendipine Binding (3H-nitrendipine, heart membranes); details: displacement of 3H-nitrendipine (0.05-0.50 nM) from rabbit heart membranes, 90 minutes at 4° C.
T1 construct: from tissue; host or cells: rabbit heart membranes
Experimental: Female, New Zealand white rabbits (1-2 kg) are sacrificed by cervical dislocation, and the heart is immediately removed, cleaned and chopped into small pieces. The tissue is homogenized in 5×times volume of 0.05M Hepes buffer, pH 7.4. The homogenate is centrifuged at 4000 g for 10 minutes, and the supernatant is re-centrifuged at 42,000×g for 90 minutes. The resulting membrane pellet is resuspended (0.7 ml/g weight) in 0.05M Hepes, pH 7.4 and stored at […] until used. Each tube of the binding assay contains ^3H-nitrendipine (0.05-0.50 nM), buffer, membranes (0.10 ml), and test compound in a total volume of 1.0 ml. After 90 minutes at 4° C., the bound nitrendipine is separated from the unbound by filtration on Whatman GF/C filters. After rinsing, the filters are dried and counted in a liquid scintillation counter.
Non-specific binding of ^3H-nitrendipine (that amount bound in the presence of excess unlabelled nitrendipine) is subtracted from the total bound to obtain specifically bound radiolabeled nitrendipine. The amount of specifically bound nitrendipine in the presence of a test compound is compared to that amount bound in the absence of a compound. A percent displacement (or inhibition) can then be calculated.

T1 sequence (P15381 whole entry, other chains not shown): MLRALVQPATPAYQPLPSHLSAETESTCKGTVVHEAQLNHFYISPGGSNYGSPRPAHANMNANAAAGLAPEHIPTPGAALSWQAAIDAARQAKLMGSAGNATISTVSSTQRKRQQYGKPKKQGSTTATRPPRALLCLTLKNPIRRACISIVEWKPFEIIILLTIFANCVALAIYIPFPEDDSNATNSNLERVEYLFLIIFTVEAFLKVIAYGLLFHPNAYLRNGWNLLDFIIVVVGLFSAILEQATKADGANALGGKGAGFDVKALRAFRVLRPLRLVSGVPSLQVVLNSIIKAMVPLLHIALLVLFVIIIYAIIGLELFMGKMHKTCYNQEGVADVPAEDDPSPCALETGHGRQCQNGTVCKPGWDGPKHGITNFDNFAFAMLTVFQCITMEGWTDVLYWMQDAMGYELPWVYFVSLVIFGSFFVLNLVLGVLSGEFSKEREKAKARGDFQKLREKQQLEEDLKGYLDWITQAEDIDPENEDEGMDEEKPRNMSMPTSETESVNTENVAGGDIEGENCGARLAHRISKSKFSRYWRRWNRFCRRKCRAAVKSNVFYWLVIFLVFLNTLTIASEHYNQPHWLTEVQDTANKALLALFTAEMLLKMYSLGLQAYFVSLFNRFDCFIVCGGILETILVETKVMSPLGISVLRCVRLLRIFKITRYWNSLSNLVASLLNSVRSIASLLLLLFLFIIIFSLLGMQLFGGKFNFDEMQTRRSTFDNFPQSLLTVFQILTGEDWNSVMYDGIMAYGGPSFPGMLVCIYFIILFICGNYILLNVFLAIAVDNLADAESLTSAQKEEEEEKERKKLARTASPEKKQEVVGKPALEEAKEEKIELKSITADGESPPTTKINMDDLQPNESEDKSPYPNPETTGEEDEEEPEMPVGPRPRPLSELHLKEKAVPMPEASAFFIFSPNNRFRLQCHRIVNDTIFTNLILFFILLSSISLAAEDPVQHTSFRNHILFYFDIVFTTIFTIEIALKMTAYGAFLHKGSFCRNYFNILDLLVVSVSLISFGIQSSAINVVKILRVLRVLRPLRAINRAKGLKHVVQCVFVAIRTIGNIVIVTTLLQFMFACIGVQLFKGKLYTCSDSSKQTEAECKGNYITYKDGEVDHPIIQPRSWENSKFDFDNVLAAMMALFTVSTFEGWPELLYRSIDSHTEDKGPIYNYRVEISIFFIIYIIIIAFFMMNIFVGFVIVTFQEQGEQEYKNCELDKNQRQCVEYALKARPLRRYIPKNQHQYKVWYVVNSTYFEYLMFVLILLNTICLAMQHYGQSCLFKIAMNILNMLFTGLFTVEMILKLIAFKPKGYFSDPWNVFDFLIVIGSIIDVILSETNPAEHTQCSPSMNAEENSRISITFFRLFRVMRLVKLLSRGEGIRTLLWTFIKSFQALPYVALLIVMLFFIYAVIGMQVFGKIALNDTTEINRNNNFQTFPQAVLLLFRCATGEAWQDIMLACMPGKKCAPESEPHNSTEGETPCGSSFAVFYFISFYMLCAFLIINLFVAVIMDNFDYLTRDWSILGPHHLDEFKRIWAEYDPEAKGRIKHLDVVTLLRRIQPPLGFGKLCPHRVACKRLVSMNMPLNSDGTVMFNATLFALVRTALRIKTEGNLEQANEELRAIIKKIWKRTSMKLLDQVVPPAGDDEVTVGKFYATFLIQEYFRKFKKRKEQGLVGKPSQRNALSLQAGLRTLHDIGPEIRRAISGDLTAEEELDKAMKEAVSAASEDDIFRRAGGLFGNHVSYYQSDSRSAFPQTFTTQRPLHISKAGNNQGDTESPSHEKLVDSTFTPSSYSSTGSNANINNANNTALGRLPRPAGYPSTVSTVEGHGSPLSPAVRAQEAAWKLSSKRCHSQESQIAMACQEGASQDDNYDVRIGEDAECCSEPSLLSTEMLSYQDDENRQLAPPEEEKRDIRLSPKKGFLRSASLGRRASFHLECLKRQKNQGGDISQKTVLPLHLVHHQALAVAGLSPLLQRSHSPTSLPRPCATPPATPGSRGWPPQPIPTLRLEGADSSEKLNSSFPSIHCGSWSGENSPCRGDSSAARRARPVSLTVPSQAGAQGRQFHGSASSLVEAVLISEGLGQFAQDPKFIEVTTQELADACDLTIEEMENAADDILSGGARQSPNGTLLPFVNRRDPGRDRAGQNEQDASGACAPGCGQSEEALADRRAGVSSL
T1 sequence (P13806 27-960 partner limits assumed, other chains not shown): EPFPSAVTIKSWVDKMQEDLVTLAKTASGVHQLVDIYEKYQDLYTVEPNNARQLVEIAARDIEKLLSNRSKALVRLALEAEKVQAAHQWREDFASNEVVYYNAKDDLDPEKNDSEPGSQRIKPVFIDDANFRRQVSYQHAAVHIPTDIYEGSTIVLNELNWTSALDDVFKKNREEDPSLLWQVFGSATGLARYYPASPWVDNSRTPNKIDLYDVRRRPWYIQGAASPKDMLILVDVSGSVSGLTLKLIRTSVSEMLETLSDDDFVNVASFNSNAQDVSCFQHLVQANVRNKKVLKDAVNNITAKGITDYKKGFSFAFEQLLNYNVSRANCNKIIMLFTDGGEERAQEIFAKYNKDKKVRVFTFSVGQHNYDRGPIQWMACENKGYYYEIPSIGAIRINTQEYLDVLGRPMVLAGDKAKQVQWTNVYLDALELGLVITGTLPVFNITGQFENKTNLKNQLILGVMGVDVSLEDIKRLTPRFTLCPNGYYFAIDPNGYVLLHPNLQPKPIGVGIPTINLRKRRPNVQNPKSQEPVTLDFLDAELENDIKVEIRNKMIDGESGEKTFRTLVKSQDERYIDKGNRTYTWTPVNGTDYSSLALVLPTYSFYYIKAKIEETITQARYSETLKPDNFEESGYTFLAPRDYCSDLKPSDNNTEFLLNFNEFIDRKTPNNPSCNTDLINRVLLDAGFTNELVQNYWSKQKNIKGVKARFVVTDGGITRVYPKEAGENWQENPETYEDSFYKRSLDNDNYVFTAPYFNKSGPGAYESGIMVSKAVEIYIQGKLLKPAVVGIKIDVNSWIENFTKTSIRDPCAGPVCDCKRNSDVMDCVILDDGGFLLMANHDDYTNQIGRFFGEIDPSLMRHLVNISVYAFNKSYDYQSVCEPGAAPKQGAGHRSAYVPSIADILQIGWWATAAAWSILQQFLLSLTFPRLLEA
T1 sequence (P13806 961-1106 partner limits assumed, other chains not shown): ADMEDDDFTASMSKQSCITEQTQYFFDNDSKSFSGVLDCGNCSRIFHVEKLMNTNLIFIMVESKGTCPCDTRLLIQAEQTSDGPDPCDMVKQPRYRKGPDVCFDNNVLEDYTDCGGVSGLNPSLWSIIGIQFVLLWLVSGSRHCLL

**Q.** With CC1=C(C(=O)OCCN(C)Cc2ccccc2)C(c2cccc(Cl)c2Cl)C2=C(COc3ccccc3S2(=O)=O)N1 (stereo not shown) [Compound 6, 1H-[1,5]Benzoxathiepino[3,4-b]pyridine-3-carboxylic acid, 4-(2,3-dichlorophenyl)4,11-dihydro-2-methyl-, 2-[methyl(phenylmethyl)amino]ethyl ester, 5,5-dioxide] as the compound, how does the IC50 read?
**A.** 21 nM

**Q.** For CC1=C(C(=O)OCCN(C)Cc2ccccc2)C(c2c(F)cccc2Cl)C2=C(COc3ccccc3S2(=O)=O)N1 (stereo not shown) [Compound 7, 1H-[1,5]Benzoxathiepino[3,4-b]pyridine-3-carboxylic acid, 4-(2-chloro-6-fluorophenyl)-4,11-dihydro-2-methyl-, 2-[methyl(phenylmethyl)amino]ethyl ester, 5,5-dioxide], which IC50 is on record?
**A.** 47 nM

**Q.** For CC1=C(C(=O)OCCN(C)Cc2ccccc2)C(c2cccc([N+](=O)[O-])c2)C2=C(COc3ccccc3S2(=O)=O)N1 (stereo not shown) [Compound 4, 1H-[1,5]Benzoxathiepino[3,4-b]pyridine-3-carboxylic acid, 4,11-dihydro-2-methyl-4-(3-nitrophenyl)-, 2-[methyl(phenylmethyl)amino]ethyl ester, 5,5-dioxide], which IC50 is on record?
**A.** 45 nM

**Q.** For CC1=C(C(=O)OCCN(C)Cc2ccccc2)C(c2ccccc2Cl)C2=C(COc3ccccc3S2(=O)=O)N1 (stereo not shown) [Compound 2, 1H-[1,5]Benzoxathiepino[3,4-b]pyridine-3-carboxylic acid, 4-(2-chlorophenyl)-4,11-dihydro-2-methyl-, 2-[methyl(phenylmethyl)amino]ethyl ester, 5,5-dioxide], which IC50 is on record?
**A.** 59 nM

**Q.** For CC1=C(C(=O)OCCN(C)Cc2ccccc2)C(c2cccc(Cl)c2)C2=C(COc3ccccc3S2(=O)=O)N1 (stereo not shown) [Compound 5, 1H-[1,5]Benzoxathiepino[3,4-b]pyridine-3-carboxylic acid, 4-(3-chlorophenyl)-4,11-dihydro-2-methyl-, 2-[methyl(phenylmethyl)amino]ethyl ester, 5,5-dioxide], which IC50 is on record?
**A.** 109 nM

**Q.** How did the IC50 turn out when COC(=O)C1=C(C)NC2=C(C1c1cccc([N+](=O)[O-])c1)S(=O)(=O)c1ccccc1OC2 (stereo not shown) [Compound 3, 1H-[1,5]Benzoxathiepino[3,4-b]pyridine-3-carboxylic acid, 4,11-dihydro-2-methyl-4-(3-nitrophenyl)-, methyl ester, 5,5-dioxide] was run?
**A.** 33 nM

**Q.** COC(=O)C1=C(C)NC2=C(C1c1ccccc1Cl)S(=O)(=O)c1ccccc1OC2 (stereo not shown) [Compound 1, 1H-[1,5]Benzoxathiepino[3,4-b]pyridine-3-carboxylic acid, 4-(2-chlorophenyl)-4,11-dihydro-2-methyl-, methyl ester, 5,5-dioxide] was tested. Which IC50 did it give?
**A.** 61 nM
